In patent US10744092B2, “Temperature-sensitive composite and method for preparing same” (KOREA UNIVERSITY RESEARCH AND BUSINESS FOUNDATION, SEJONG …, priority 2016, dated 2020):

What was measured:
[1] = Release pattern of drug from composite (dialysis bag in PBS pH 7.4, HPLC); format: physicochemical; settings: at body temperature (37° C.) versus room temperature; PBS pH 7.4, dialysis bag
Description: To confirm the release pattern of a drug from the temperature-sensitive composite in the present invention, an experiment was carried out as follows. 20 mg of each of the temperature-sensitive composites from Examples 1, 2 and 3, and the temperature-sensitive polymer composites from Comparative Examples 1, 2 and 3 was put into a dialysis bag (filtration molecular weight cut-off—100,000), and then immersed in 20 ml of a phosphate buffer solution (PBS, pH 7.4). The temperature was maintained at 25° C. and 37.5° C. with stirring at 600 rpm. At predetermined time, 5 ml of the phosphate buffer solution was withdrawn to measure an amount of the released drug through HPLC. After sampling, the remaining phosphate buffer solution was completely removed, and a fresh phosphate buffer solution was added.

[2] = Precipitation / stability and solubility of drug in composite aqueous solution; format: physicochemical; settings: drug not loaded in nanoparticles
Description: An aqueous solution was prepared by mixing 2 g of Pluronic F-127, 0.1 g of naproxen and 50 mg of sodium hyaluronate with 10 ml of distilled water, thereby preparing a polymer composite aqueous solution in which naproxen was dispersed.
An aqueous solution was prepared by mixing 1.6 g of Pluronic F-127, 0.4 g of Pluronic F-68, 50 mg of doxorubicin and 75 mg of docetaxel with 10 ml of distilled water, thereby preparing a polymer composite aqueous solution in which doxorubicin and docetaxel were dispersed.

release of the drug [1]	precipitation in the polymer composite [2]	SMILES
decreased	–	CCCCN1CCCCC1C(=O)Nc1c(C)cccc1C (stereo not shown) [bupivacaine]
–	precipitated	CC(=O)O[C@@]12CO[C@@H]1C[C@H](O)[C@@]1(C)C(=O)[C@H](O)C3=C(C)[C@@H](OC(=O)[C@H](O)[C@@H](NC(=O)OC(C)(C)C)c4ccccc4)C[C@@](O)([C@@H](OC(=O)c4ccccc4)[C@H]21)C3(C)C [docetaxel]
decreased	–	COc1cccc2c1C(=O)c1c(O)c3c(c(O)c1C2=O)C[C@@](O)(C(=O)CO)C[C@@H]3O[C@H]1C[C@H](N)[C@H](O)[C@H](C)O1 [doxorubicin]
–	precipitated	COc1ccc2cc([C@H](C)C(=O)O)ccc2c1 [naproxen]
